The source of these data is patent US20200399238A1, “THERAPEUTIC AURONES” (MIDDLE TENNESSEE STATE UNIVERSITY, priority 2016, published 2020).

Each structure is given as a SMILES string. Read-outs that look alike come from different tables or passages of the source.

The subject of assay [1] is Trypanosoma brucei brucei 427 cells. Nature of the assay: T. brucei culture and assay (PrestoBlue). The class given is cell-based.
Assay [2] deals with Leishmania amazonensis promastigotes expressing beta-lactamase. Nature of the assay: microbe, parasite or virus in culture. The class given is cell-based. On the procedure: Leishmania amazonensis promastigotes expressing beta-lactamase (Buckner et al., Am. J. Trop. Med. Hyg. 72 (2005) 600-605. doi:72/5/600 [pii]) were cultured in RPMI supplemented with 10% fetal calf serum and 1% pen-strep-glut solution (Sigma) at 27° C. Stationary phase promastigotes were adjusted in fresh media, treated with compounds, and incubated at 37° C. At 24 hours, 100 uL of cultures was added to 50 uL of the CellTiter Glo® solution. Luminescence readings were taken with a spectrophotometer and used to calculate inhibition.

For assay [3], the system named is rat skeletal muscle cell line, L6. Nature of the assay: cells. The class given is cell-based. On the procedure:
Cells were maintained in high glucose DMEM obtained from HyClone Laboratories (Logan, Utah) and supplemented with FCS and P/S at the same concentrations used for parasite culture. Cells were passaged every 3-4 days and maintained in a 37° C. humidified incubator in an atmosphere of 5% CO2. For assays. cells were detached, counted using a hemocytometer, and adjusted using fresh media to deliver 5×10^3 cells per well (90 μL) in black walled, flat clear bottom 96-well microtiter plates. After 3 h incubation for attachment, compounds diluted in culture medium were added (10 μL) to triplicate wells. Positive controls (cells treated with podophyllotoxin (Sigma, St. Louis, Mo.)), negative controls (untreated cells), solvent controls (DMSO) and media blanks were included on each plate. Following incubation for 71.5 h, 11 μL of PrestoBlue was added into each well.

Assay [4] concerns Trypanosoma cruzi Tulahuen cells expressing beta-galactosidase. Nature of the assay: T. cruzi intracellular assay (beta-galactosidase, L6 host cells). Particulars: for IC50: Trypanosoma cruzi, TULAHUEN; for Selectivity L6/TC-I: Table 3A.
Description: Trypanosoma cruzi Tulahuen cells expressing beta-galactosidase (Buckner et al., Antimicrob. Agents Chemother. 40 (1996) 2592-2597) were cultured using the L6 cell line as a host cell. Adherent L6 cultures were infected with freshly burst T. cruzi trypomastigotes. Approximately 4-6 days later freshly burst trypomastigotes were collected and used to maintain cultures For assays, trypomastigotes were centrifuged to a loose pellet and incubated for 3 hours to allow the trypomastigote forms to swim out of the pellet. Cells were adjusted for addition to intracellular or extracellular assays. […] For intracellular assays, cells were added to adherent L6 cells using an infection ratio of 1:1 and immediately treated with compounds. At 96 hours incubations, a solution containing chlorophenol-red-B-D-beta-galactopyranosidase (Sigma) and a lysis agent were added. After an additional 2 hour incubation, a spectrophotometer was used to quantify the resulting color change (or lack thereof) which was used to calculate inhibition.
The percentage of cell inhibition was calculated using the formula: Percent Inhibition=1−((Treated Sample value−Medium only value)/(Untreated value−Medium only value))×100. Results are expressed as the mean of two or more independent trials.
The mark [5] stands for this setting: Table 2, L6 IC50 / T. brucei IC50.
Setting [6] is: Trypanosoma brucei, Table 1, mean of 2(+) independent trials, read-out: IC50 T. brucei.
Setting [7] is: Leishmania amazonensis, read-out: IC50 L. amaz.
Setting [8] is: Rattus norvegicus, Table 1, read-out: IC50 Toxicity (L6).
Where [9] appears, read: Rattus norvegicus, Table 3B, weighted means of two or more independent trials, read-out: IC50 L6.
The mark [10] stands for this setting: Table 2, L6 mammalian cells, read-out: IC50 Toxicity (L6).
The mark [11] stands for this setting: Table 1, intracellular T. cruzi IC50.
Where [12] appears, read: Table 2, L6 IC50 / T. cruzi IC50 (intracellular assay).
Setting [13] is: read-out: IC50 T. cruzi, Table 1, intracellular assay, mean of 2(+) trials (^c one trial).
Setting [14] is: read-out: IC50 T. cruzi, Table 2, intracellular assay, mean of 2(+) independent trials.
Where [15] appears, read: read-out: IC50 TC-I, Table 3B, weighted means of two or more independent trials.
The mark [16] stands for this setting: Leishmania amazonensis, read-out: IC50 L. amaz. (footnote c: value obtained from one trial).
Where [17] appears, read: Rattus norvegicus, Table 3A, weighted means of two or more independent trials, read-out: IC50 L6.
Setting [18] is: estimated from highest L6 dose tested where no L6 IC50.
The mark [19] stands for this setting: read-out: IC50 TC-I, Table 3A, weighted means of two or more independent trials.
[20] abbreviates: Table 2, L6 IC50 / L. amazonensis IC50.

As for `O=C1/C(=C/c2cnc[nH]2)Oc2ccccc21` [Aurone 6621, (Z)-2-((1H-imidazol-5-yl)methylene)benzofuran-3(2H)-one], the “Selectivity L6/Tb” value in assay [1] (Table 1) and in assay [1] (setting [5]) was >64.10 in each case. Further, the IC50 in assay [1] (Trypanosoma brucei, read-out: IC50 TB) is > 50 µM; in assay [1] (setting [6]), 1.56 µM; in assay [2] (setting [7]), > 50 µM; in assay [2] (read-out: IC50 L. amaz., Table 2, mean of 2(+) independent trials), > 50 µM; in assay [3] (setting [8]), > 100 µM; in assay [3] (setting [9]), > 100 µM. Further, the concentration for half-maximal inhibition (IC50) in assay [3] (setting [10]) is > 100 µM; in assay [4] (setting [13]), 18.3 µM; in assay [4] (setting [14]) it was 18.3 µM; in assay [4] (setting [15]), 18.3 µM. Moreover, the “Selectivity L6/Tc” value in assay [4] (setting [11]) and in assay [4] (setting [12]) was >5.45 in each case. Moreover, the “Selectivity L6/Tc-I” value in assay [4] (Table 3B, estimated from highest L6 dose tested where no L6 IC50) is listed as >5.45.
Regarding `COc1cc(OC)c2c(c1)O/C(=C\c1cccc([N+](=O)[O-])c1)C2=O` [Aurone 7001], the IC50 in assay [1] (setting [6]) was > 50 µM; in assay [2] (setting [7]), 22 µM; in assay [3] (setting [8]) it was > 100 µM; in assay [4] (setting [13]), > 50 µM.
In the case of `CC(C)c1ccc(/C=C2\Oc3ccccc3C2=O)cc1` [Aurone 8002, (Z)-2-(4-isopropylbenzylidene)benzofuran-3(2H)-one], the IC50 came to 43.4 µM in assay [1] (setting [6]); 2.88 µM in assay [2] (setting [7]); 2.88 µM in assay [2] (setting [16]); 89 µM in assay [3] (setting [8]); 16.6 µM in assay [4] (setting [13]); 16.6 µM in assay [4] (setting [14]).
Turning to `O=C1/C(=C/c2ccc(F)cc2)Oc2ccccc21` [Aurone 9002, (Z)-2-(4-fluorobenzylidene)benzofuran-3(2H)-one], the IC50 in assay [1] (setting [6]) is > 50 µM; in assay [2] (setting [7]) it was 39.3 µM; in assay [3] (setting [8]), > 100 µM; in assay [3] (setting [17]), > 100 µM; in assay [4] (setting [13]), 15.8 µM; in assay [4] (setting [19]), 15.8 µM. Also, in assay [2] (Table 1), the “Selectivity L6/La” value is >2.54. For the same compound, the “Selectivity L6/Tc” value in assay [4] (setting [11]) was >6.33. Also, the “Selectivity L6/TC-I” value in assay [4] (setting [18]) is recorded as >6.33.
As for `O=C1/C(=C/c2ccc(Cl)cc2)Oc2ccccc21` [Aurone 9019, (Z)-2-(4-chlorobenzylidene)benzofuran-3(2H)-one], the “Selectivity L6/Tb” value is on record as >2.88 in assay [1] (Table 1); >2.88 in assay [1] (setting [5]); >2.88 in assay [1] (Table 3A, estimated from highest L6 dose tested where no L6 IC50). Moreover, the IC50 in assay [1] (setting [6]) was 34.7 µM; in assay [2] (setting [7]), 41.5 µM; in assay [3] (setting [8]), > 100 µM; in assay [3] (setting [17]) it was > 100 µM; in assay [3] (setting [10]) it was > 100 µM; in assay [4] (setting [13]), 5.53 µM. The IC50 in assay [4] (setting [14]) and in assay [4] (setting [19]) was 5.53 µM each time. Besides, the “Selectivity L6/La” value in assay [2] (Table 1) and in assay [2] (setting [20]) was >2.41 in each case. The “Selectivity L6/Tc” value in assay [4] (setting [11]) and in assay [4] (setting [12]) was >18.08 throughout. Moreover, the “Selectivity L6/TC-I” value in assay [4] (setting [18]) is given as >18.08.
Turning to `O=C1/C(=C/c2cccc(Br)c2)Oc2ccccc21` [Aurone 9030, (Z)-2-(3-bromobenzylidene)benzofuran-3(2H)-one], the IC50 in assay [1] (Table 2, mean of 2(+) independent trials, read-out: IC50 T. brucei) was > 50 µM; in assay [1] (setting [6]), > 50 µM; in assay [2] (setting [7]) it was < 1 µM; in assay [2] (setting [16]), < 1 µM; in assay [3] (setting [8]), > 100 µM; in assay [3] (setting [17]) it was > 100 µM. Also, the IC50 in assay [3] (setting [10]) is > 100 µM; in assay [4] (setting [13]), 7.35 µM; in assay [4] (setting [14]), 7.35 µM; in assay [4] (setting [19]), 7.35 µM. Besides, the “Selectivity L6/La” value in assay [2] (Table 1) and in assay [2] (setting [20]) was >100 each time. For the same compound, the “Selectivity L6/Tc” value in assay [4] (setting [11]) and in assay [4] (setting [12]) was >13.61 in each case. For the same compound, in assay [4] (setting [18]), the “Selectivity L6/TC-I” value was >13.61.
For `O=C1/C(=C/c2c[nH]c3ccccc23)Oc2ccccc21` [Aurone 9062, (Z)-2-((1H-indol-3-yl)methylene)benzofuran-3(2H)-one], the IC50 in assay [1] (setting [6]) was 24.8 µM; in assay [2] (setting [7]), 1.66 µM; in assay [3] (setting [8]), 64.7 µM; in assay [3] (setting [9]), 64.7 µM; in assay [4] (setting [13]) it was 8.53 µM; in assay [4] (setting [14]), 8.53 µM. Besides, the IC50 was 8.53 µM in assay [4] (setting [15]) and < 10 µM in assay [4] (read-out: T. cruzi IC50 dose).

By IC50 is commonly meant the concentration needed to halve the response being measured.
